Like-named read-outs stand apart in the source and are kept apart here.
Legend:
Experiment in all cases: Growth inhibitory activity of compounds on BaF3 cell lines stably transfected with kinase (MTS, 48 h)
Assay type in all cases: cell-based
[1] = molecular target: T1, various mutants of kinase EGFR (BaF3 cell lines stably transfected with kinase) (Homo sapiens, UniProt P00533)
T1 construct: other: BaF3 cells stably transfected with EGFR Δ19Del; MTS, 48 h; other: BaF3 cell line stably transfected with EGFR Δ19Del
How it was run: (§1)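 Transfected cells received compound (max 10 µM, 8 concentrations) for 48 h; MTS readout at 490 nm yielded IC50.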

[2] = molecular target: T2, various mutants of kinase EGFR (BaF3 cell lines stably transfected with kinase) (Homo sapiens, UniProt P00533, C797S/L858R/T790M)
T2 construct: expressed in transfected cells; host or cells: BaF3
How it was run: as §1

[3] = molecular target: T3, various mutants of kinase EGFR (BaF3 cell lines stably transfected with kinase) (Homo sapiens, UniProt P00533, L858R)
T3 construct: expressed in transfected cells; host or cells: BaF3
T3 sequence (P00533 25-1210 L858R): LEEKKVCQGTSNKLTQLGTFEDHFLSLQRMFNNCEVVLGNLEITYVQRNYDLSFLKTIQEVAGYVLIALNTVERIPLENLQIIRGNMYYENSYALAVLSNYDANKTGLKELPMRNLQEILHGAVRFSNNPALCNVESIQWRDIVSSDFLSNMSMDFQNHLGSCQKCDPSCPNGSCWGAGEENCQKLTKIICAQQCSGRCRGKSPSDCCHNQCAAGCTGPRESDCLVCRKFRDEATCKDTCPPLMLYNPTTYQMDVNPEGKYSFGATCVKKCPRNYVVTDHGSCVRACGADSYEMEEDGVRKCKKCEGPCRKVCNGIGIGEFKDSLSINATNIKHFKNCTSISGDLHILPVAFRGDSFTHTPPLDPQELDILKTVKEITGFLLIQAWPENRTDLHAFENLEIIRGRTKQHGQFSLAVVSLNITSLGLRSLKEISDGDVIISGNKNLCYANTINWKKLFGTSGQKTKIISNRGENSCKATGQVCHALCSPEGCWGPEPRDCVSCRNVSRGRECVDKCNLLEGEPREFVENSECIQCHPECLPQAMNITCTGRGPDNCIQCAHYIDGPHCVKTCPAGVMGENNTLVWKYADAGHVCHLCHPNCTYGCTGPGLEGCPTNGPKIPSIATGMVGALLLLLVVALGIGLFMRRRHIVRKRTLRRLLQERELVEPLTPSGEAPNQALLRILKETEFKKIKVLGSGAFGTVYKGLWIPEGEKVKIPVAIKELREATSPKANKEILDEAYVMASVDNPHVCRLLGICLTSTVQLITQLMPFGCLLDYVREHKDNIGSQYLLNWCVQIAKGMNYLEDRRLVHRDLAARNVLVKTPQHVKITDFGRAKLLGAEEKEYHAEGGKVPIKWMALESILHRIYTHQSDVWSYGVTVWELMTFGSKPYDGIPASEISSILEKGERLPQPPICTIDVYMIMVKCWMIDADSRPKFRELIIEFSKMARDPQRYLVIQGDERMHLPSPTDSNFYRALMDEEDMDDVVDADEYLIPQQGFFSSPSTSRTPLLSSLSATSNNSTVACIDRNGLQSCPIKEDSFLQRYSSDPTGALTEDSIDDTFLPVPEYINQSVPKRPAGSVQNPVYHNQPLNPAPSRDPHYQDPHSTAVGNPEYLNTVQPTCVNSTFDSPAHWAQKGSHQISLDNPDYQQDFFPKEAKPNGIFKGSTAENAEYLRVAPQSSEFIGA
How it was run: as §1

[4] = molecular target: T4, various mutants of kinase EGFR (BaF3 cell lines stably transfected with kinase) (Homo sapiens, UniProt P00533, L858R/T790M)
T4 construct: expressed in transfected cells; host or cells: BaF3
T4 sequence (P00533 25-1210 T790M/L858R): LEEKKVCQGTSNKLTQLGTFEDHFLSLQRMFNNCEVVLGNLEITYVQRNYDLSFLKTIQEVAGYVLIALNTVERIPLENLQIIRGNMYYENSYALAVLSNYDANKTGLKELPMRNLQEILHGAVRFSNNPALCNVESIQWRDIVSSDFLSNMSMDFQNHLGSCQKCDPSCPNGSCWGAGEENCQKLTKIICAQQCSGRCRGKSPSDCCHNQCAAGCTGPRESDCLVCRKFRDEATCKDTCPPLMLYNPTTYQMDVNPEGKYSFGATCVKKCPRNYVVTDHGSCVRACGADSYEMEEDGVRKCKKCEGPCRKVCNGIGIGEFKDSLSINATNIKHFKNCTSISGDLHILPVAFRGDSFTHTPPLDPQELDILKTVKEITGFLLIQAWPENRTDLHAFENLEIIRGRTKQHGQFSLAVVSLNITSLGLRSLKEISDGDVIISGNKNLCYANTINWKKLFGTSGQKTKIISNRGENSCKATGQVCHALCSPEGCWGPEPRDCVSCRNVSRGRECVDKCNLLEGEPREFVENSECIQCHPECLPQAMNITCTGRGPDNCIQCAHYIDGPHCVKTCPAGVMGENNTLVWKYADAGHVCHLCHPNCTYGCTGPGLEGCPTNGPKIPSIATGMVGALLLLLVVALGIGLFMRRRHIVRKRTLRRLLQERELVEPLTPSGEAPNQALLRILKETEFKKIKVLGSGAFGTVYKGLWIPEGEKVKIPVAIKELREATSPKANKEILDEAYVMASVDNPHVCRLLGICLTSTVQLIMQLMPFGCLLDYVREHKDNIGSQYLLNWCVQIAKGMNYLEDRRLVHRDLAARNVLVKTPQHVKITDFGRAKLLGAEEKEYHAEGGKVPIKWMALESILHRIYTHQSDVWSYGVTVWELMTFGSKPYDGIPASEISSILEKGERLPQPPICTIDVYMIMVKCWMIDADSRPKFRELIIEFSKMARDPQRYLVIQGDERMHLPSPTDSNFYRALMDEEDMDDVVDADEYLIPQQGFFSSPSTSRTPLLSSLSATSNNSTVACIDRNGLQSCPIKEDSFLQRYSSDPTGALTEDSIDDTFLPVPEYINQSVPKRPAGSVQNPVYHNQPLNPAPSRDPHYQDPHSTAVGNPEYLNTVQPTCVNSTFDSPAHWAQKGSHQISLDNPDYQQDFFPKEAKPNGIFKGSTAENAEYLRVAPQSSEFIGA
How it was run: as §1

[5] = molecular target: T5, various mutants of kinase EGFR (BaF3 cell lines stably transfected with kinase) (Homo sapiens, UniProt P00533, T790M/C797S, form not given)
T5 construct: other: BaF3 cells stably transfected with EGFR Δ19Del/T790M/C797S; MTS, 48; other: BaF3 cell line stably transfected with EGFR Δ19Del/T790M/C7
T5 sequence (P00533 with tags, fused parts or gaps DEL746-750/T790M/C797S, form open): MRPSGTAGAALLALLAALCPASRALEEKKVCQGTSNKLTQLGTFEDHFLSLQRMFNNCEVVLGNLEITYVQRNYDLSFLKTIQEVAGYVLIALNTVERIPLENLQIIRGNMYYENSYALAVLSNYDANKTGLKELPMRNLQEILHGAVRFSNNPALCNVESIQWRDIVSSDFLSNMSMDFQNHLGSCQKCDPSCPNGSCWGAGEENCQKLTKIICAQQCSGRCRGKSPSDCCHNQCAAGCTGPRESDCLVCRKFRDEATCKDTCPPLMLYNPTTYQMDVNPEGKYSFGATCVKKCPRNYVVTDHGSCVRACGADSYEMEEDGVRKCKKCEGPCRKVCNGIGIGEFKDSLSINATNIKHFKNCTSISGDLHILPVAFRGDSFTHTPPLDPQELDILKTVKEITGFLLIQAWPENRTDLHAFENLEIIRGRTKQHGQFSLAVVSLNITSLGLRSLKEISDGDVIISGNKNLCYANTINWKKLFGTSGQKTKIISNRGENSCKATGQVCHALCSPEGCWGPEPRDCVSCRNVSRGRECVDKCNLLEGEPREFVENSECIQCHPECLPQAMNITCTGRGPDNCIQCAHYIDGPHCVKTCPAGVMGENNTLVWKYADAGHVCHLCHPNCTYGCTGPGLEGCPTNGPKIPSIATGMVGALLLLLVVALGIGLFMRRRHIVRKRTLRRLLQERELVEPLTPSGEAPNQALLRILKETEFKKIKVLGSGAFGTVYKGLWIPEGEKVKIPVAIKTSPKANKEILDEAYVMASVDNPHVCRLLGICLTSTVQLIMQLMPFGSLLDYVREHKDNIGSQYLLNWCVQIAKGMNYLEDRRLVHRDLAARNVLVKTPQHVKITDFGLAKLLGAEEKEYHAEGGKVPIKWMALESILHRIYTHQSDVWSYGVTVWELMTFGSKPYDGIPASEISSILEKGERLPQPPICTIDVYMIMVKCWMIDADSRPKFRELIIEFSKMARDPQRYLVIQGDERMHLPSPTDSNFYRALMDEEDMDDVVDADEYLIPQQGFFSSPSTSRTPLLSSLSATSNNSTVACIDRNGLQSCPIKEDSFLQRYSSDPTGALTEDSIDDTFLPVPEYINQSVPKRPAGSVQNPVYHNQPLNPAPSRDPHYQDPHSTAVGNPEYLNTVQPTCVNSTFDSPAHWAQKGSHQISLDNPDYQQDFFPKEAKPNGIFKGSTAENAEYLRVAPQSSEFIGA
How it was run: as §1

[6] = molecular target: T6, various mutants of kinase EGFR (BaF3 cell lines stably transfected with kinase) (Homo sapiens, UniProt P00533, T790M, form not given)
T6 construct: other: BaF3 cells stably transfected with EGFR Δ19Del/T790M; MTS, 48 h; other: BaF3 cell line stably transfected with EGFR Δ19Del/T790M; MTS, 48
T6 sequence (P00533 with tags, fused parts or gaps DEL746-750/T790M, form open): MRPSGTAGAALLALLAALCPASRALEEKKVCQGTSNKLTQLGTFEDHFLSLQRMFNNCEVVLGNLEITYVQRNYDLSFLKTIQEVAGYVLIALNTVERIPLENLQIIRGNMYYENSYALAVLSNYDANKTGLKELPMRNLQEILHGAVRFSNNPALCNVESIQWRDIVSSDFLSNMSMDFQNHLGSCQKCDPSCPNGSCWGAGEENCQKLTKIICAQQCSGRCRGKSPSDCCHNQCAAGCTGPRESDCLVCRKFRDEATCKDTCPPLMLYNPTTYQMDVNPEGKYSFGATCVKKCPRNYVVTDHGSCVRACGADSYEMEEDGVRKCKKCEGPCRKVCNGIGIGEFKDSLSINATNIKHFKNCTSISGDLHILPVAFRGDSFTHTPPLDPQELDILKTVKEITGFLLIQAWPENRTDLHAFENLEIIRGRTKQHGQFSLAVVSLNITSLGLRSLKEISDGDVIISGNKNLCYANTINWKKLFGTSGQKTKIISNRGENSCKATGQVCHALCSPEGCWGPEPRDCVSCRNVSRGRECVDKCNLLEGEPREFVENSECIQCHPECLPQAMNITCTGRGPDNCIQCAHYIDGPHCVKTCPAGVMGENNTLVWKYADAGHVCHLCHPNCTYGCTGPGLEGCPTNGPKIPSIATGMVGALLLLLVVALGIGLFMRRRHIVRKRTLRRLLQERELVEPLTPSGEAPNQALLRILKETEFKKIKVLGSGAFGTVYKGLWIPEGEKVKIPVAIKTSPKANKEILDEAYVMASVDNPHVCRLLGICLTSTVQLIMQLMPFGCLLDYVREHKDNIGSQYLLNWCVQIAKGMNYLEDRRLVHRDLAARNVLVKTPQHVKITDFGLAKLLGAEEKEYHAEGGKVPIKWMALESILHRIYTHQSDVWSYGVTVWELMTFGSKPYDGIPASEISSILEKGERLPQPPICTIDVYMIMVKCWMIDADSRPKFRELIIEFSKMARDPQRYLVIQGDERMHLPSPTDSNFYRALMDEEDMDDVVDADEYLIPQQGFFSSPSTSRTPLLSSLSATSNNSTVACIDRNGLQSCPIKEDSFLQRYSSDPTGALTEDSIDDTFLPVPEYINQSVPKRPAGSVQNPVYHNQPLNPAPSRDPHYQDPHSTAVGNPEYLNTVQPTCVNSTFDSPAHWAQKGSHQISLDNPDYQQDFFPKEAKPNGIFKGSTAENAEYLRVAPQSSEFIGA
How it was run: as §1

[7] = BaF3 cell line stably transfected with EGFR Δ19Del, read-out: Δ19Del growth inhibitory activity IC50
[8] = BaF3 cell line stably transfected with EGFR L858R/T790M/C797S, read-out: L858R/T790M/ C797S growth inhibitory activity IC50
[9] = BaF3 cell line stably transfected with EGFR L858R, read-out: L858R growth inhibitory activity IC50
[10] = BaF3 cell line stably transfected with EGFR L858R/T790M, read-out: L858R/ T790M growth inhibitory activity IC50
[11] = BaF3 cell line stably transfected with EGFR Δ19Del/T790M/C797S, read-out: Δ19Del/T790M/ C797S growth inhibitory activity IC50
[12] = BaF3 cell line stably transfected with EGFR Δ19Del/T790M, read-out: Δ19Del/ T790M growth inhibitory activity IC50
[13] = BaF3 cells stably transfected with EGFR Δ19Del, read-out: IC50, growth inhibition, Δ19Del
[14] = BaF3 cells stably transfected with EGFR L858R/T790M/C797S, read-out: IC50, growth inhibition, L858R/T790M/C797S
[15] = BaF3 cells stably transfected with EGFR L858R, read-out: IC50, growth inhibition, L858R
[16] = BaF3 cells stably transfected with EGFR L858R/T790M, read-out: IC50, growth inhibition, L858R/T790M
[17] = BaF3 cells stably transfected with EGFR Δ19Del/T790M/C797S, read-out: IC50, growth inhibition, Δ19Del/T790M/C797S
[18] = BaF3 cells stably transfected with EGFR Δ19Del/T790M, read-out: IC50, growth inhibition, Δ19Del/T790M

IC50 [1, 7] [nM] | IC50 [2, 8] [nM] | IC50 [3, 9] [nM] | IC50 [4, 10] [nM] | IC50 [5, 11] [nM] | IC50 [6, 12] [nM] | IC50 [1, 13] [nM] | IC50 [2, 14] [nM] | IC50 [3, 15] [nM] | IC50 [4, 16] [nM] | IC50 [5, 17] [nM] | IC50 [6, 18] [nM] | SMILES
50 to 500 | 50 to 500 | 50 to 500 | ≤ 50 | 50 to 500 | 50 to 500 | – | – | – | – | – | – | COc1cc(N2CCC(N3CCN(C)CC3)CC2)ccc1Nc1ncc(Br)c(Nc2ccc3nccnc3c2NS(C)(=O)=O)n1 [Compound I-401]
– | – | – | – | – | – | 500 to 2500 | 500 to 2500 | 500 to 2500 | 50 to 500 | 500 to 2500 | 50 to 500 | CN(c1c(Nc2nc(NC3CC3)ncc2Br)ccc2nccnc12)S(C)(=O)=O [Compound I-73]
– | – | – | – | – | – | ≤ 50 | ≤ 50 | ≤ 50 | ≤ 50 | ≤ 50 | ≤ 50 | CCc1cc(Nc2ncc(Cl)c(Nc3ccc4nccnc4c3N(C)S(C)(=O)=O)n2)c(OC)cc1N1CCC(N(C)C)CC1 [Compound I-170]
– | – | – | – | – | – | ≤ 50 | ≤ 50 | ≤ 50 | ≤ 50 | ≤ 50 | ≤ 50 | CCc1cc(Nc2ncc(C(F)(F)F)c(Nc3ccc4nccnc4c3N(C)S(C)(=O)=O)n2)c(OC)cc1N1CCC(N2CCN(C)CC2)CC1 [Compound I-35]
– | – | – | – | – | – | 50 to 500 | ≤ 50 | ≤ 50 | ≤ 50 | ≤ 50 | ≤ 50 | COc1cc(N2CCN(C)CC2)c(C)cc1Nc1ncc(Cl)c(Nc2ccc3nccnc3c2N(C)S(C)(=O)=O)n1 [Compound I-171]
500 to 2500 | ≤ 50 | 50 to 500 | 50 to 500 | 50 to 500 | 50 to 500 | – | – | – | – | – | – | CCc1cc(Nc2ncc(Br)c(Nc3ccc4nccnc4c3N(C)S(C)(=O)=O)n2)c(OC)cc1NCCO [Compound I-390]
– | – | – | – | – | – | 50 to 500 | 500 to 2500 | 50 to 500 | 500 to 2500 | 50 to 500 | 500 to 2500 | CN1CCN(C2CCN(c3ccc(Nc4ncc(F)c(Nc5ccc6nccnc6c5N(C)S(C)(=O)=O)n4)c(OC(F)(F)F)c3)CC2)CC1 [Compound I-178]
50 to 500 | 50 to 500 | 50 to 500 | 50 to 500 | ≤ 50 | 50 to 500 | – | – | – | – | – | – | CCn1cc(Nc2ncc(Br)c(Nc3ccc4nccnc4c3N(C)S(C)(=O)=O)n2)cn1 [Compound I-386]
– | – | – | – | – | – | 50 to 500 | ≤ 50 | ≤ 50 | ≤ 50 | ≤ 50 | ≤ 50 | COc1cc(N2CCC(N(C)C)C2)c(C)cc1Nc1ncc(Br)c(Nc2ccc3nccnc3c2N(C)S(C)(=O)=O)n1 (stereo not drawn) [Compound I-14]
50 to 500 | ≤ 50 | 50 to 500 | 50 to 500 | ≤ 50 | ≤ 50 | – | – | – | – | – | – | CCc1cc(Nc2nc(Nc3ccc4nccnc4c3N(C)S(C)(=O)=O)c3cc[nH]c3n2)c(OC(F)(F)F)cc1N1CCC(N2CCN(C)CC2)CC1 [II-2-8]
500 to 2500 | 500 to 2500 | 500 to 2500 | 500 to 2500 | 500 to 2500 | 500 to 2500 | – | – | – | – | – | – | COc1nc(N2CCC(N3CCN(C)CC3)CC2)ccc1Nc1nc(Nc2ccc3nccnc3c2N(C)S(C)(=O)=O)c2[nH]ccc2n1 [II-1-27]
500 to 2500 | 500 to 2500 | 500 to 2500 | 500 to 2500 | 500 to 2500 | 50 to 500 | – | – | – | – | – | – | CN1CCN(C2CCN(c3ccc(Nc4nc(Nc5ccc6nccnc6c5N(C)S(C)(=O)=O)c5occc5n4)c(OC(F)(F)F)c3)CC2)CC1 [II-1-40]
– | – | – | – | – | – | ≤ 50 | ≤ 50 | ≤ 50 | ≤ 50 | ≤ 50 | ≤ 50 | CCc1cc(Nc2ncc(C3CC3)c(Nc3ccc4nccnc4c3N(C)S(C)(=O)=O)n2)c(OC)cc1N1CCC(N2CCN(C)CC2)CC1 [Compound I-269]
– | – | – | – | – | – | 50 to 500 | ≤ 50 | 50 to 500 | 50 to 500 | ≤ 50 | 50 to 500 | COc1cc(N2CCOCC2)ccc1Nc1ncc(Br)c(Nc2ccc3nccnc3c2N(C)S(C)(=O)=O)n1 [Compound I-45]
50 to 500 | ≤ 50 | 50 to 500 | ≤ 50 | ≤ 50 | ≤ 50 | – | – | – | – | – | – | CCc1cc(Nc2nc(Nc3ccc4nccnc4c3N(C)S(C)(=O)=O)c3cc[nH]c3n2)c(OC)nc1N1CCC(N2CCN(C)CC2)CC1 [II-2-7]
– | – | – | – | – | – | 500 to 2500 | 50 to 500 | 500 to 2500 | 50 to 500 | ≤ 50 | 50 to 500 | Cc1cc(Nc2ncc(Br)c(Nc3ccc4nccnc4c3N(C)S(C)(=O)=O)n2)c(OC(C)C)cc1C1CCN(C)CC1 [Compound I-37]
– | – | – | – | – | – | 500 to 2500 | 50 to 500 | 500 to 2500 | 500 to 2500 | 500 to 2500 | 500 to 2500 | COc1cc(N2CCN(C)CC2)c(C)cc1Nc1ncc(Cl)c(Nc2ccc3nccnc3c2N(C)S(=O)(=O)C(F)(F)F)n1 [Compound I-266]
– | – | – | – | – | – | 50 to 500 | ≤ 50 | 50 to 500 | ≤ 50 | ≤ 50 | ≤ 50 | CCc1cc(Nc2ncc(Cl)c(Nc3ccc4nccnc4c3N(C)S(=O)(=O)CC)n2)c(OC)nc1N1CCC(N2CCN(C)CC2)CC1 [Compound I-234]
– | – | – | – | – | – | 50 to 500 | 50 to 500 | 50 to 500 | 50 to 500 | 50 to 500 | 50 to 500 | CCc1cc(Nc2ncc(Cl)c(Nc3ccc4nccnc4c3N(C3CC3)S(C)(=O)=O)n2)c(OC(F)(F)F)cc1N1CCC(N2CCN(C)CC2)CC1 [Compound I-161]
50 to 500 | ≤ 50 | 50 to 500 | ≤ 50 | ≤ 50 | ≤ 50 | – | – | – | – | – | – | COc1ccc(N2CCC(O)CC2)cc1Nc1ncc(C(F)(F)F)c(Nc2ccc3nccnc3c2N(C)S(C)(=O)=O)n1 [Compound I-369]
– | – | – | – | – | – | ≤ 50 | ≤ 50 | ≤ 50 | ≤ 50 | ≤ 50 | ≤ 50 | CCN(c1c(Nc2nc(Nc3cc(CC4CC4)c(N4CCC(N5CCN(C)CC5)CC4)cc3OC)ncc2Br)ccc2nccnc12)S(C)(=O)=O [Compound I-213]
– | – | – | – | – | – | ≤ 50 | ≤ 50 | 50 to 500 | ≤ 50 | 50 to 500 | ≤ 50 | CN(c1c(Nc2nc(Nc3cnn(C)c3)ncc2Br)ccc2nccnc12)S(C)(=O)=O [Compound I-67]
– | – | – | – | – | – | ≤ 50 | ≤ 50 | ≤ 50 | ≤ 50 | ≤ 50 | ≤ 50 | CCc1cc(Nc2ncc(OC)c(Nc3ccc4nccnc4c3N(C)S(C)(=O)=O)n2)c(OC(F)(F)F)cc1N1CCC(N2CCN(C)CC2)CC1 [Compound I-281]
– | – | – | – | – | – | ≤ 50 | ≤ 50 | ≤ 50 | ≤ 50 | ≤ 50 | ≤ 50 | COc1cc(N2CCC(N3CCCC3)CC2)ccc1Nc1ncc(Br)c(Nc2ccc3nccnc3c2N(C)S(C)(=O)=O)n1 [Compound I-41]
≤ 50 | ≤ 50 | ≤ 50 | ≤ 50 | ≤ 50 | ≤ 50 | – | – | – | – | – | – | CCc1cnc(Nc2cc(C)c(N3CCC(N4CCN(C)CC4)CC3)cc2OC)nc1Nc1ccc2nccnc2c1N(C)S(C)(=O)=O [Compound I-317]
– | – | – | – | – | – | ≤ 50 | 50 to 500 | ≤ 50 | ≤ 50 | ≤ 50 | 50 to 500 | C=Cc1cc(Nc2ncc(F)c(Nc3ccc4nccnc4c3N(C)S(C)(=O)=O)n2)c(OC(F)(F)F)cc1N1CCC(N2CCN(C)CC2)CC1 [Compound I-180]
– | – | – | – | – | – | 50 to 500 | 50 to 500 | 50 to 500 | ≤ 50 | 50 to 500 | ≤ 50 | COc1cc(N2CCC(N3CCN(C)CC3)CC2)c(C2CC2)cc1Nc1ncc(C2CC2)c(Nc2ccc3nccnc3c2N(C)S(C)(=O)=O)n1 [Compound I-292]
